Results taken from article PMC10746212 (mBio, 2023).

Biological target: T1, MdrA (rMdrA) (Brucella abortus, UniProt Q2YN99)
T1 construct: gene BAB1_0783
Conditions: 192 bp btaE promoter fragment, rMucR present, pH 7.4, room temperature; inhibitor of MdrA displacement activity; no direct binding measured

T1 sequence (Q2YN99 1-199 limits assumed): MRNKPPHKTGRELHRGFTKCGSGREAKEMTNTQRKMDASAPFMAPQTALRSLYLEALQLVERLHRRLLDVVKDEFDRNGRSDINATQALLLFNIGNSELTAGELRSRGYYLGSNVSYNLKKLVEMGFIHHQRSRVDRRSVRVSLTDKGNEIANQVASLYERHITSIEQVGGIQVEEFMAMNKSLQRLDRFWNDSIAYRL

For `C[C@H](CCC(=O)O)[C@H]1CC[C@H]2[C@@H]3CC[C@@H]4C[C@H](O)CC[C@]4(C)[C@H]3C[C@H](O)[C@]12C` [deoxycholate], the “EMSA, displacement of MucR from 32P-labelled btaE promoter DNA by rMdrA” value was “MdrA can no longer displace MucR from the btaE promoter when deoxycholate”.
